The results in this text go back to PubChem BioAssay (NCI).

Among the test systems are 786-0 renal; A549 NSCLC; NCI-H460 lung; MOLT-4 leukemia; RXF 393 renal; SK-MEL-2 melanoma; UACC-62 melanoma.
Holding throughout (test): NCI-60 cell line screen, 48 h

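In this assay, cells in 96-well plates receive the compound at five concentrations for 48 hours. Endpoints are linearly interpolated between the surrounding concentrations. GI50 is the concentration that inhibits growth by half. The concentration for full growth arrest is given as TGI.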

For `CCN(Cc1ccc(F)c(F)c1)c1ccc(CO)c(Cl)c1`, the GI50 in the experiment on 786-0 renal is 5.44 µM; in the experiment with A549 NSCLC, 1.89 µM; with NCI-H460 lung it was 0.253 µM; in the experiment with MOLT-4 leukemia, 16.8 µM; in the experiment with RXF 393 renal it was 2.73 µM; in the experiment with SK-MEL-2 melanoma, 4.08 µM. In addition, the GI50 in the experiment with UACC-62 melanoma was 0.12 µM. The TGI was found to be 22.9 µM in the experiment with 786-0 renal; 19.1 µM in the experiment with A549 NSCLC; 10.7 µM in the experiment on NCI-H460 lung; 47.6 µM with MOLT-4 leukemia; 15.9 µM in the experiment with RXF 393 renal; 19.5 µM in the experiment with SK-MEL-2 melanoma. Moreover, the TGI in the experiment on UACC-62 melanoma was 0.919 µM.

As to `C[C@H](Nc1ncnc2nc[nH]c12)c1cc2cccc(Cl)c2c(=O)n1-c1ccccc1`, the GI50 in the experiment on 786-0 renal is 1.42 µM; in the experiment with A549 NSCLC, 24.2 µM; in the experiment on NCI-H460 lung, 12.6 µM; with MOLT-4 leukemia, 6.53 µM; in the experiment on RXF 393 renal it was 0.273 µM; in the experiment on SK-MEL-2 melanoma, 19.2 µM. Moreover, in the experiment with UACC-62 melanoma, the GI50 is 2.6 µM. In addition, the TGI is more than 86.7 µM in the experiment on 786-0 renal; more than 100 µM in the experiment with A549 NSCLC; more than 100 µM with NCI-H460 lung; 51.1 µM with MOLT-4 leukemia; 9.41 µM in the experiment with RXF 393 renal; 72.6 µM in the experiment with SK-MEL-2 melanoma. The TGI with UACC-62 melanoma is more than 100 µM.

With `CC1SC(c2c(Cl)cccc2Cl)N(NC(=O)c2[nH]c3ccc(F)cc3c2-c2ccccc2)C1=O` (stereo not drawn), the GI50 in the experiment on 786-0 renal is 2.14 µM; in the experiment on A549 NSCLC, 1.68 µM; in the experiment with NCI-H460 lung it was 2.03 µM; in the experiment with MOLT-4 leukemia it was 13.2 µM; in the experiment on RXF 393 renal it was 1.73 µM; in the experiment with SK-MEL-2 melanoma it was 3.29 µM. Further, the GI50 in the experiment on UACC-62 melanoma was 4 µM. Besides, the TGI in the experiment on 786-0 renal was found to be 4.44 µM; in the experiment on A549 NSCLC, 3.16 µM; with NCI-H460 lung, 3.9 µM; with MOLT-4 leukemia it was 64.7 µM; with RXF 393 renal, 4.12 µM; with SK-MEL-2 melanoma it was 15.6 µM. The compound also yielded a TGI in the experiment on UACC-62 melanoma of 32.5 µM.

With `COc1c(CCC[P+](c2ccccc2)(c2ccccc2)c2ccccc2)cc2c(c1OC)OCO2`, the GI50 was 3.91 µM in the experiment with 786-0 renal; 3.7 µM in the experiment on A549 NSCLC; 1.45 µM with NCI-H460 lung; 3.12 µM in the experiment on MOLT-4 leukemia; 2.05 µM in the experiment on RXF 393 renal; 3.03 µM in the experiment on SK-MEL-2 melanoma. In the experiment with UACC-62 melanoma, the GI50 was 0.569 µM. In addition, the TGI came to 26.9 µM in the experiment on 786-0 renal; 38.1 µM in the experiment with A549 NSCLC; 4.56 µM in the experiment with NCI-H460 lung; 16.3 µM in the experiment with MOLT-4 leukemia; 11.6 µM in the experiment with RXF 393 renal; 14.1 µM with SK-MEL-2 melanoma. In addition, in the experiment with UACC-62 melanoma, the TGI was 5.53 µM.

On to `CN(C)/C=C/c1nnc([N+](=O)[O-])s1`, for which the TGI in the experiment with 786-0 renal came out at 36.3 µM; with A549 NSCLC, 66.4 µM; in the experiment on NCI-H460 lung it was 33.1 µM; with RXF 393 renal, 31.4 µM; in the experiment with SK-MEL-2 melanoma, 39.3 µM; with UACC-62 melanoma, 35.4 µM.

In the case of `COc1c2c(c3c(c1CCC(=O)O)OC(C)(C)C=C3)OC(C)(C)C=C2`, the TGI with 786-0 renal, in the experiment with A549 NSCLC, with MOLT-4 leukemia, in the experiment with RXF 393 renal, in the experiment on SK-MEL-2 melanoma and in the experiment with UACC-62 melanoma was more than 100 µM in each case.

Consider `O=C(c1ccccc1)C1N=NCC1c1ccc([N+](=O)[O-])cc1` (stereo not drawn), for which the TGI in the experiment on 786-0 renal is more than 100 µM; with A549 NSCLC it was more than 100 µM; in the experiment on NCI-H460 lung it was more than 100 µM; in the experiment with MOLT-4 leukemia, 72.9 µM; in the experiment on SK-MEL-2 melanoma, more than 100 µM; in the experiment on UACC-62 melanoma, more than 100 µM.

Turning to `COc1ccc(-c2ccc(/C=N/n3c(COc4ccc(Cl)cc4Cl)n[nH]c3=S)o2)c([N+](=O)[O-])c1`, the GI50 in the experiment on 786-0 renal was 29 µM; with A549 NSCLC, 19.5 µM; in the experiment with NCI-H460 lung, 18 µM; in the experiment on MOLT-4 leukemia it was 14 µM; in the experiment with RXF 393 renal, 16.6 µM; with UACC-62 melanoma, 34.7 µM. Further, the TGI with 786-0 renal is 54.2 µM; in the experiment on A549 NSCLC, more than 100 µM; in the experiment with NCI-H460 lung it was 46.3 µM; in the experiment on MOLT-4 leukemia it was 38.9 µM; in the experiment on RXF 393 renal, 40.2 µM; in the experiment on UACC-62 melanoma, more than 100 µM.

Turning to `COC(=O)/C=C/C=C(c1ccccc1)c1ccccc1`, the GI50 with 786-0 renal is 4.32 µM; with A549 NSCLC it was 5.02 µM; in the experiment on NCI-H460 lung, 3.67 µM; with MOLT-4 leukemia it was 14.2 µM; with RXF 393 renal, 6.24 µM; with UACC-62 melanoma it was 5.43 µM. Besides, the TGI in the experiment on 786-0 renal is 58.5 µM; in the experiment with A549 NSCLC, more than 100 µM; in the experiment with NCI-H460 lung it was 15.2 µM; in the experiment on MOLT-4 leukemia it was more than 100 µM; in the experiment on RXF 393 renal it was 30 µM; with UACC-62 melanoma it was 25.4 µM.

`Cc1sc(C(=O)Nc2cc(C(=O)NCCCN(C)C)n(C)c2)cc1NC(=O)CCCN1C(=O)c2cccc3cccc(c23)C1=O`: the GI50 was more than 100 µM in the experiment with 786-0 renal; more than 100 µM with A549 NSCLC; more than 100 µM in the experiment with NCI-H460 lung; 88.3 µM in the experiment with MOLT-4 leukemia; more than 100 µM in the experiment on SK-MEL-2 melanoma; more than 100 µM in the experiment with UACC-62 melanoma. Further, the TGI in the experiment with 786-0 renal, in the experiment on A549 NSCLC, with NCI-H460 lung, with MOLT-4 leukemia, in the experiment with SK-MEL-2 melanoma and in the experiment on UACC-62 melanoma was more than 100 µM throughout.

Take `COC(=O)[C@]12CC[C@@H](C)[C@H](C)[C@@H]1C1=CC[C@@H]3[C@@]4(C)C[C@@H](OC(C)=O)[C@H](O)[C@@](C)(COC(C)=O)[C@@H]4[C@H](O)C[C@@]3(C)[C@]1(C)CC2`: the GI50 with 786-0 renal was 1.89 µM; in the experiment with A549 NSCLC, 2.21 µM; in the experiment on NCI-H460 lung it was 2.05 µM; with MOLT-4 leukemia, 1.66 µM; with RXF 393 renal it was 2.13 µM; with SK-MEL-2 melanoma, 2.84 µM. Moreover, the TGI came to 4.84 µM with 786-0 renal; 8.34 µM with A549 NSCLC; 4.02 µM in the experiment with NCI-H460 lung; 4.24 µM in the experiment on MOLT-4 leukemia; 5.05 µM in the experiment with RXF 393 renal; 7.39 µM in the experiment with SK-MEL-2 melanoma.

For the compound `CC1(C)SC2C(NC(=O)C(N)c3ccccc3)C(=O)N2C1C(=O)O` (stereo not drawn), the TGI in the experiment on 786-0 renal, in the experiment with A549 NSCLC, in the experiment with NCI-H460 lung, in the experiment on MOLT-4 leukemia, in the experiment with SK-MEL-2 melanoma and in the experiment with UACC-62 melanoma was more than 100 µM throughout.
